Results taken from ChEMBL document CHEMBL1641476, “Tetrahydroquinoline derivatives as opioid receptor antagonists” (Bioorg Med Chem Lett, 2011).

Experiments:
[1] = biological target: Delta-type opioid receptor (Homo sapiens, UniProt P41143); assay: Antagonist activity at human delta opioid receptor expressed in CHO cells assessed as [35S]GTPgammaS binding by SPA; assay type: functional, cell-based
[2] = biological target: Kappa-type opioid receptor (Homo sapiens, UniProt P41145); assay: Antagonist activity at human kappa opioid receptor expressed in CHO cells assessed as [35S]GTPgammaS binding by SPA; assay type: functional, cell-based
Chain of Kappa-type opioid receptor (P41145 whole entry): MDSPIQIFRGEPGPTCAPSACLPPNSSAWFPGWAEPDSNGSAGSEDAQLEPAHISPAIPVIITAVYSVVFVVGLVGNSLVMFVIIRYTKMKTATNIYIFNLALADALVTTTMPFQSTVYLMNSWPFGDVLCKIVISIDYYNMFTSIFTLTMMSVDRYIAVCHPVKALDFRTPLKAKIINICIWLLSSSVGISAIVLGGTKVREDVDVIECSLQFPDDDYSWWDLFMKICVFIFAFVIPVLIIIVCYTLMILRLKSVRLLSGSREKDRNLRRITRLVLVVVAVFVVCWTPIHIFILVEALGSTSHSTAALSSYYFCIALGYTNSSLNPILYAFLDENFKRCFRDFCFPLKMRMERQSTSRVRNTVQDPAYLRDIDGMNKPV

Mu-type opioid receptor = Mu-type opioid receptor (Homo sapiens, UniProt P35372); assay: Antagonist activity at human mu opioid receptor expressed in CHO cells assessed as [35S]GTPgammaS binding by SPA; assay type: functional, cell-based
Chain of Mu-type opioid receptor (P35372 whole entry): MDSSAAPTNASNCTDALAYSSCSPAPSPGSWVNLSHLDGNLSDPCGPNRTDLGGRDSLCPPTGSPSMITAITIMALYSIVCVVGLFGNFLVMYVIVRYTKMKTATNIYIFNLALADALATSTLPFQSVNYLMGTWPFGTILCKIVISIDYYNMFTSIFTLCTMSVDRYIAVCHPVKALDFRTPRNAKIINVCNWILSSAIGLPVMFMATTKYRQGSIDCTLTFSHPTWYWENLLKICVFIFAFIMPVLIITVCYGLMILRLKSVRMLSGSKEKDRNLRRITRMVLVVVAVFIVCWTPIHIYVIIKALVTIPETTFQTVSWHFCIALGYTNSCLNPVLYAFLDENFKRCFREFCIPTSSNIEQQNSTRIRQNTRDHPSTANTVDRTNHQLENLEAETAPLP

[3] = Half life in iv dosed Long-Evans rat; assay type: ADME, organism-based; conditions: in vivo
[4] = Oral bioavailability in Long-Evans rat; assay type: ADME, organism-based; conditions: in vivo
[5] = Clearance in iv dosed Long-Evans rat; assay type: ADME, organism-based; conditions: in vivo
Rattus norvegicus = assay: Ratio of drug level in po dosed Long-Evans rat; assay type: ADME, organism-based; conditions: in vivo
[6] = Volume of distribution at steady state in iv dosed Long-Evans rat; assay type: ADME, organism-based; conditions: in vivo, read-out: Vdss

Chain of Delta-type opioid receptor (P41143 whole entry): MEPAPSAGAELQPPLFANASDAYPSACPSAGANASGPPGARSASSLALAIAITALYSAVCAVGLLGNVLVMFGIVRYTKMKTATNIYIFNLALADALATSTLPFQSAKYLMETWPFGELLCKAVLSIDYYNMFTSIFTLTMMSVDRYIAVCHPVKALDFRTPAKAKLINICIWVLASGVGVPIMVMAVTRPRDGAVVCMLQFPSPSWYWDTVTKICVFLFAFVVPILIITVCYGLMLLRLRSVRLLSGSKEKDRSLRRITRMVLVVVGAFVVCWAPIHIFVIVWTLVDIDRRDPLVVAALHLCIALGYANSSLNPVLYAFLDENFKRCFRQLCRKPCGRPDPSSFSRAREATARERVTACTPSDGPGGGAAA

Row | Ki [1] [nM] | Ki [2] [nM] | Ki (Mu-type opioid receptor) [nM] | half-life [3] [h] | bioavailability [4] [%] | clearance [5] [mL/min/kg] | Ratio (Rattus norvegicus) | Vd [6] [L/kg] | SMILES
1 | 100 | 200 | 7.94 | – | – | – | – | – | NC(=O)c1ccc2c(c1)CCCN2c1ccc(CNC2Cc3ccccc3C2)c(F)c1
2 | 100 | 200 | 12.6 | – | – | – | – | – | Cc1cc(CNCCC2=CCCCC2)ccc1N1CCCc2cc(C(N)=O)ccc21
3 | 158 | 158 | 7.94 | – | – | – | – | – | Cc1cc(N2CCCc3cc(C(N)=O)ccc32)ccc1CNC1Cc2ccccc2C1
4 | > 3980 | 1260 | 631 | – | – | – | – | – | CC(C)CNCc1ccc(N2CCCc3cc(C(N)=O)ccc32)cc1
5 | 1580 | > 3980 | 2000 | – | – | – | – | – | NC(=O)c1ccc2c(c1)CCCN2c1cccc(C(=O)NCCC2=CCCCC2)c1
6 | 251 | 794 | 31.6 | – | – | – | – | – | NC(=O)c1ccc2c(c1)CCCN2c1ccc(CNCCc2cccc(F)c2)cc1
7 | 316 | 251 | 126 | – | – | – | – | – | NC(=O)c1ccc2c(c1)CCCN2c1ccc(CNCCC2CCOCC2)cc1
8 | 12.6 | 20 | 1.58 | – | – | – | – | – | Cc1cc(CNC2Cc3ccccc3C2)ccc1N1CCCc2cc(C(N)=O)ccc21
9 | 158 | 316 | 25.1 | 5.34 | 33 | 26.5 | 0.1 | 1.5 | NC(=O)c1ccc2c(c1)CCCN2c1ccc(CNCCC2=CCCCC2)cc1
10 | 316 | 631 | 25.1 | – | – | – | – | – | NC(=O)c1ccc2c(c1)CCCN2c1ccc(CNCCc2cccs2)cc1
11 | > 3980 | > 3980 | > 3980 | – | – | – | – | – | NC(=O)c1ccc2c(c1)CCCN2c1ccc(CNC2CCN(C3CCOCC3)CC2)cc1
12 | 316 | 251 | 50.1 | – | – | – | – | – | CC(C)(C)CCNCc1ccc(N2CCCc3cc(C(N)=O)ccc32)cc1
13 | 316 | 631 | 25.1 | – | – | – | – | – | NC(=O)c1ccc2c(c1)CCCN2c1cc(F)c(CNC2Cc3ccccc3C2)c(F)c1
14 | 316 | 501 | 79.4 | – | – | – | – | – | CC(C)CCNCc1ccc(N2CCCc3cc(C(N)=O)ccc32)cc1
15 | 100 | 200 | 15.8 | – | – | – | – | – | NC(=O)c1ccc2c(c1)CCCN2c1ccc(CNC2Cc3ccccc3C2)c(Cl)c1
16 | 200 | 1260 | 50.1 | – | – | – | – | – | NC(=O)c1ccc2c(c1)CCCN2c1cccc(CNCCC2=CCCCC2)c1
17 | 501 | 631 | 100 | – | – | – | – | – | Cc1cc(N2CCCc3cc(C(N)=O)ccc32)ccc1CNCCC1=CCCCC1
18 | 398 | 631 | 100 | – | – | – | – | – | NC(=O)c1ccc2c(c1)CCCN2c1ccc(CNCc2cccc(F)c2)cc1
19 | > 3980 | > 3980 | > 3160 | – | – | – | – | – | O=C(O)c1ccc2c(c1)CCCN2c1ccc(CNCCC2=CCCCC2)cc1
20 | 63.1 | 631 | 50.1 | – | – | – | – | – | NC(=O)c1ccc2c(c1)CCCN2c1ccc(CNC2Cc3ccccc3C2)c(C(F)(F)F)c1
21 | > 3980 | > 3980 | 398 | – | – | – | – | – | C1=C(CCNCc2ccc(N3CCCc4ccccc43)cc2)CCCC1
22 | 79.4 | 126 | 12.6 | – | – | – | – | – | NC(=O)c1ccc2c(c1)CCCN2c1ccc(CNC2Cc3ccc(F)cc3C2)cc1 (stereo not drawn)

Row | SMILES | Ki [1] [nM] | Ki [2] [nM] | Ki (Mu-type opioid receptor) [nM] | half-life [3] [h] | bioavailability [4] [%] | clearance [5] [mL/min/kg] | Ratio (Rattus norvegicus) | Vd [6] [L/kg]
23 | CC1(C)CCC(NCc2ccc(N3CCCc4cc(C(N)=O)ccc43)cc2)CC1 | 50.1 | 63.1 | 10 | – | – | – | – | –
24 | NC(=O)c1ccc2c(c1)CCCN2c1ccc(CNCC2CCCCC2)cc1 | 398 | 316 | 39.8 | – | – | – | – | –
25 | NC(=O)c1ccc2c(c1)CCCN2c1ccc(CNC2Cc3ccccc3C2)cc1 | 39.8 | 25.1 | 5.01 | – | – | – | – | –
26 | CCCCCNCc1ccc(N2CCCc3cc(C(N)=O)ccc32)cc1 | 251 | 1000 | 50.1 | – | – | – | – | –
